The nature of series [1]: Storage and solution stability. Format: physicochemical. Conditions: stored at −20° C. for several months.
The subject of series [2] is A33 antigens on live LS174T human colon carcinoma cells. In words: Live-cell imaging of TCO-antibody pretargeted cells. Format: cell-based. Conditions: 5 μM probe, 30 minutes. The protocol: FIGS 1A-1D. Depicted in FIG. 1A are fluorescence emission spectra for compound 2v (lowest line) and compound 5 (middle line) and 6 (upper line) in PBS; excitation at 480 nm. FIG. 1B: Figure depicts equimolar solutions of compound 6 and 2v under excitation by a handheld UV lamp. FIGS. 1C-1D: Figures depict Live-cell imaging of LS174T cells. FIG. 1C: Cells were incubated (t=1 h) with 200 nM TCO-conjugated A33 antibodies, washed, and then imaged 30 minutes after the addition of 5 μM 2v. FIG. 1D: Cells lacking TCO were treated with 5 μM 2v for 30 minutes. Scale bar=[…] for both FIGS. 1C and 1D.
Cell culture and labeling. LS174T cells were grown in DMEM media supplemented with 10% fetal bovine serum, 1% L-glutamine, 1% penicillin/streptomycin. Cells were incubated in 5.0% carbon dioxide, 95% humidity at 37° C. The cells were grown in a T-75 tissue culture flask and seeded on a Lab-Tek II chamber slide two days prior to the experiment. A33 antibody (R&D Systems, MN) was modified by incubation with 50 equivalents of trans-cyclooctene NHS ester for 2 hours at room temperature. The A33 antibody was washed three times with 0.1M sodium bicarbonate buffer pH 8.3 using a 30 kDa spin filter before adding the antibody to the cells at a final concentration of 200 nM for 1 hour.
Image acquisition. […]

Series [3] can be described thus: Fluorescence assays: fluorogenic turn-on reaction with dienophiles. Format: physicochemical. Conditions: PBS pH 7.4, excitation at 480 nm. On the procedure: All compounds were purified by HPLC and verified by LC-MS prior to quantitative activation experiments. Stock solutions in methanol were diluted into 1.5 mL of the appropriate solvent in a 1 cm×1 cm quartz cuvette. Measurements of solvent and pre-activation emission spectra for baseline values were made in at least triplicate, prior to addition of trans-cyclooctenol or cyclopropene 4 to initiate the fluorogenic reaction. 3-fold additional excess of trans-cyclooctenol and cyclopropene 4 were added for each fluorogenic reaction. Activation ratios were calculated from the peak emission intensity of the reaction product and the corresponding baseline intensity, and all the intensity data was background subtracted. Integration of the area under the emission intensity curves was used to validate the activation ratios.
Fluorescence emission of 2v, 5, 6 are depicted in FIG. 1A. All three compounds were dissolved in 2 μM phosphate-buffered saline (PBS) at pH 7.4. FIG. 5A depicts fluorescence emission of 2v in 2 μM phosphate-buffered saline (PBS) at pH 7.4. FIG. 5B depicts fluorescence emission of 2w, 7, 8. All three compounds were dissolved in 2 μM EtOH solution. […] FIG. 5C depicts fluorescence emission of 2w in 2 μM EtOH solution. FIG. 5D depicts fluorescence emission of 2x, 9, 10. […] FIG. 5E depicts fluorescence emission of 2x in 2 μM EtOH solution.

A short description of series [4]: Solubility in DMF:PBS during kinetic measurement. Conditions: DMF:PBS at DMF concentrations lower than 80%. Format: physicochemical. On the procedure:
FIGS. 3A-3B. (E)-3-substituted-6-styryl-s-tetrazine reaction kinetics. FIG. 3A: Reaction scheme of (E)-cyclooct-4-enol and the series of tetrazines for kinetic characterization. Only one isomer is depicted for 15. FIG. 3B: Tetrazine kinetics were determined by reacting 1 mM tetrazine with an excess (10 mM) of (E)-cyclooct-4-enol in 50% DMF, 50% PBS 1×pH 7.4 buffer at 22° C. Second-order rate constants derived from the data are listed, and the corresponding curves for 2b, 2p, and 11 are shown in FIG. 4A. Tetrazine 2p was reacted in 80% DMF, 20% PBS due to its insolubility at lower DMF concentrations.
A NANODROP™ 2000c (Thermo Scientific) equipped with a cuvette reader and a stirrer was used in the kinetic measurements, and the disappearance of the tetrazine peak absorption around 520 nm was measured over time. Tetrazines at 1 mM were reacted with an excess 10 mM (E)-cyclooct-4-enol with the measurements commencing immediately upon (E)-cyclooct-4-enol addition (FIGS. 3A, 4A-4B). Solution conditions were maintained at 1:1 DMF:PBS pH 7.4 buffer (Sigma Life Science), and all the measurements were done at 22° C. room temperature. Tetrazine peak intensity at each time point was adjusted for background by extrapolation, as in the previous section. Tetrazine peak disappearance is shown as points in FIGS. 4A-4B, with the connecting lines resulting from the nonlinear fits made with Prism 6.0c. […]

For the compound `Cc1nnc(CCOS(C)(=O)=O)nn1` [Cmpd 1a], the storage stability result in series [1] was “without noticeable decomposition”.

Take `Cc1nnc(/C=C/c2ccc(C(=O)O)c(-c3c4cc(F)c(=O)cc-4oc4cc(O)c(F)cc34)c2)nn1` [Cmpd 2v]: the background staining entry in series [2] (cells lacking targeted dienophile) is given as “negligible background staining”. For the same compound, in series [2] (cells pretargeted with 200 nM TCO-conjugated A33 antibodies), the “confocal imaging of targeted dienophiles” value was “readily revealed the location of targeted dienophiles”. The results for the “increase in fluorescence intensity (turn-on)” value in series [3] (after reaction with a TCO) and in series [3] (after reaction with a cyclopropene) were 400 fold and 135 fold, respectively.

As to `C(=C\c1nnc(/C=C/c2ccccc2)nn1)/c1ccccc1` [Cmpd 2p], the solubility result in series [4] is given as “insolubility”.

The values above are taken from patent publication US20160223559A1, “TETRAZINE-CONTAINING COMPOUNDS AND SYNTHETIC METHODS THEREOF” (The Regents of the University of California, priority 2015, published 2016).
